{"source": "patent US20230085307A1", "about": "“PYRIDAZINONE COMPOUND AND HERBICIDE” (NISSAN CHEMICAL CORPORATION, priority 2019, published 2023)", "key": {"wild oat [1]": {"system": "wild oat", "assay": "Test Example 5: herbicidal effect by foliage application, plastic box (Table 20, symbol I)", "type": "in vivo, wild oat (Avena fatua)", "settings": "foliage application, 320 g/ha, evaluated three weeks after application", "outline": "(§1)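 Sow seeds spot-wise in sterilized diluvial soil; cover with ~1.5 cm soil. Grow 14 days in greenhouse, 25° C. to 30° C. Spray foliage with emulsion diluted to predetermined amount. Rate effect after 3 weeks.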"}, "velvetleaf [2]": {"system": "velvetleaf", "assay": "Test Example 5: herbicidal effect by foliage application, plastic box (Table 20, symbol M)", "type": "in vivo, velvetleaf (Abutilon theophrasti)", "settings": "foliage application, 320 g/ha, evaluated three weeks after application", "outline": "as §1"}, "green foxtail [3]": {"system": "green foxtail", "assay": "Test Example 5: herbicidal effect by foliage application, plastic box (Table 20, symbol G)", "type": "in vivo, green foxtail (Setaria viridis)", "settings": "foliage application, 320 g/ha, evaluated three weeks after application", "outline": "as §1"}, "southern crabgrass [4]": {"system": "southern crabgrass", "assay": "Test Example 4: herbicidal effect by soil treatment (Table 19, symbol F)", "type": "in vivo, southern crabgrass (Digitaria ciliaris)", "settings": "amount of applied herbicide 320 g/ha", "outline": "(§2)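 Applied as a water-diluted emulsion, the compound was sprayed onto soil covering newly sown seeds. Evaluation came three weeks after application, in a greenhouse held at 25° C. to 30° C.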"}, "Italian ryegrass [5]": {"system": "Italian ryegrass", "assay": "Test Example 5: herbicidal effect by foliage application, plastic box (Table 20, symbol K)", "type": "in vivo, Italian ryegrass (Lolium multiflorum)", "settings": "foliage application, 320 g/ha, evaluated three weeks after application", "outline": "as §1"}, "velvetleaf [6]": {"system": "velvetleaf", "assay": "Test Example 4: herbicidal effect by soil treatment (Table 19, symbol M)", "type": "in vivo, velvetleaf (Abutilon theophrasti)", "settings": "amount of applied herbicide 320 g/ha", "outline": "as §2"}, "windgrass [7]": {"system": "windgrass", "assay": "Test Example 5: herbicidal effect by foliage application, plastic box (Table 20, symbol L)", "type": "in vivo, windgrass (Apera spica-venti)", "settings": "foliage application, 320 g/ha, evaluated three weeks after application", "outline": "as §1"}, "blackgrass [8]": {"system": "blackgrass", "assay": "Test Example 4: herbicidal effect by soil treatment (Table 19, symbol J)", "type": "in vivo, blackgrass (Alopecurus myosuroides)", "settings": "amount of applied herbicide 320 g/ha", "outline": "as §2"}, "Italian ryegrass [9]": {"system": "Italian ryegrass", "assay": "Test Example 4: herbicidal effect by soil treatment (Table 19, symbol K)", "type": "in vivo, Italian ryegrass (Lolium multiflorum)", "settings": "amount of applied herbicide 320 g/ha", "outline": "as §2"}, "southern crabgrass [10]": {"system": "southern crabgrass", "assay": "Test Example 5: herbicidal effect by foliage application, plastic box (Table 20, symbol F)", "type": "in vivo, southern crabgrass (Digitaria ciliaris)", "settings": "foliage application, 320 g/ha, evaluated three weeks after application", "outline": "as §1"}, "false cleavers [11]": {"system": "false cleavers", "assay": "Test Example 5: herbicidal effect by foliage application, plastic box (Table 20, symbol Q)", "type": "in vivo, false cleavers (Galium spurium)", "settings": "foliage application, 320 g/ha, evaluated three weeks after application", "outline": "as §1"}, "redroot pigweed [12]": {"system": "redroot pigweed", "assay": "Test Example 5: herbicidal effect by foliage application, plastic box (Table 20, symbol N)", "type": "in vivo, redroot pigweed (Amaranthus retroflexus)", "settings": "foliage application, 320 g/ha, evaluated three weeks after application", "outline": "as §1"}, "chickweed [13]": {"system": "chickweed", "assay": "Test Example 5: herbicidal effect by foliage application, plastic box (Table 20, symbol P)", "type": "in vivo, common chickweed (Stellaria media)", "settings": "foliage application, 320 g/ha, evaluated three weeks after application", "outline": "as §1"}, "windgrass [14]": {"system": "windgrass", "assay": "Test Example 4: herbicidal effect by soil treatment (Table 19, symbol L)", "type": "in vivo, windgrass (Apera spica-venti)", "settings": "amount of applied herbicide 320 g/ha", "outline": "as §2"}, "lambsquarters [15]": {"system": "lambsquarters", "assay": "Test Example 4: herbicidal effect by soil treatment (Table 19, symbol O)", "type": "in vivo, lambsquarters (Chenopodium album)", "settings": "amount of applied herbicide 320 g/ha", "outline": "as §2"}, "wild oat [16]": {"system": "wild oat", "assay": "Test Example 4: herbicidal effect by soil treatment (Table 19, symbol I)", "type": "in vivo, wild oat (Avena fatua)", "settings": "amount of applied herbicide 320 g/ha", "outline": "as §2"}, "persian speedwell": {"system": "persian speedwell", "assay": "Test Example 5: herbicidal effect by foliage application, plastic box (Table 20, symbol R)", "type": "in vivo, Persian speedwell (Veronica persica)", "settings": "foliage application, 320 g/ha, evaluated three weeks after application", "outline": "as §1"}, "green foxtail [17]": {"system": "green foxtail", "assay": "Test Example 4: herbicidal effect by soil treatment (Table 19, symbol G)", "type": "in vivo, green foxtail (Setaria viridis)", "settings": "amount of applied herbicide 320 g/ha", "outline": "as §2"}, "barnyard grass [18]": {"system": "barnyard grass", "assay": "Test Example 5: herbicidal effect by foliage application, plastic box (Table 20, symbol H)", "type": "in vivo, barnyard grass (Echinochloa crus-galli)", "settings": "foliage application, 320 g/ha, evaluated three weeks after application", "outline": "as §1"}, "false cleavers [19]": {"system": "false cleavers", "assay": "Test Example 4: herbicidal effect by soil treatment (Table 19, symbol Q)", "type": "in vivo, false cleavers (Galium spurium)", "settings": "amount of applied herbicide 320 g/ha", "outline": "as §2"}, "lambsquarters [20]": {"system": "lambsquarters", "assay": "Test Example 5: herbicidal effect by foliage application, plastic box (Table 20, symbol O)", "type": "in vivo, lambsquarters (Chenopodium album)", "settings": "foliage application, 320 g/ha, evaluated three weeks after application", "outline": "as §1"}, "chickweed [21]": {"system": "chickweed", "assay": "Test Example 4: herbicidal effect by soil treatment (Table 19, symbol P)", "type": "in vivo, common chickweed (Stellaria media)", "settings": "amount of applied herbicide 320 g/ha", "outline": "as §2"}, "blackgrass [22]": {"system": "blackgrass", "assay": "Test Example 5: herbicidal effect by foliage application, plastic box (Table 20, symbol J)", "type": "in vivo, blackgrass (Alopecurus myosuroides)", "settings": "foliage application, 320 g/ha, evaluated three weeks after application", "outline": "as §1"}, "barnyard grass [23]": {"system": "barnyard grass", "assay": "Test Example 4: herbicidal effect by soil treatment (Table 19, symbol H)", "type": "in vivo, barnyard grass (Echinochloa crus-galli)", "settings": "amount of applied herbicide 320 g/ha", "outline": "as §2"}, "redroot pigweed [24]": {"system": "redroot pigweed", "assay": "Test Example 4: herbicidal effect by soil treatment (Table 19, symbol N)", "type": "in vivo, redroot pigweed (Amaranthus retroflexus)", "settings": "amount of applied herbicide 320 g/ha", "outline": "as §2"}}}
{"smiles": "COc1cccc(OC)c1-c1sc2ccc(Cl)cc2c1-c1c(O)c(C)nn(C)c1=O", "note": "[2-121]", "values": [{"measurement": "herbicidal effect on I: wild oat", "setting": "wild oat [1]", "value": "0 (Herbicidal rate of 5% or less (almost no effect))"}, {"measurement": "herbicidal effect on M: velvetleaf", "setting": "velvetleaf [2]", "value": "0 (Herbicidal rate of 5% or less (almost no effect))"}, {"measurement": "herbicidal effect on G: green foxtail", "setting": "green foxtail [3]", "value": "0 (Herbicidal rate of 5% or less (almost no effect))"}, {"measurement": "F: southern crabgrass, herbicidal effect rating", "setting": "southern crabgrass [4]", "value": "0 (Herbicidal rate of 5% or less (almost no effect))"}, {"measurement": "herbicidal effect on K: Italian ryegrass", "setting": "Italian ryegrass [5]", "value": "0 (Herbicidal rate of 5% or less (almost no effect))"}, {"measurement": "M: velvetleaf, herbicidal effect rating", "setting": "velvetleaf [6]", "value": "0 (Herbicidal rate of 5% or less (almost no effect))"}, {"measurement": "herbicidal effect on L: windgrass", "setting": "windgrass [7]", "value": "0 (Herbicidal rate of 5% or less (almost no effect))"}, {"measurement": "J: blackgrass, herbicidal effect rating", "setting": "blackgrass [8]", "value": "0 (Herbicidal rate of 5% or less (almost no effect))"}, {"measurement": "K: Italian ryegrass, herbicidal effect rating", "setting": "Italian ryegrass [9]", "value": "0 (Herbicidal rate of 5% or less (almost no effect))"}, {"measurement": "herbicidal effect on F: southern crabgrass", "setting": "southern crabgrass [10]", "value": "0 (Herbicidal rate of 5% or less (almost no effect))"}, {"measurement": "herbicidal effect on Q: false cleavers", "setting": "false cleavers [11]", "value": "2 (Herbicidal rate of 20% or more and less than 40%)"}, {"measurement": "herbicidal effect on N: redroot pigweed", "setting": "redroot pigweed [12]", "value": "0 (Herbicidal rate of 5% or less (almost no effect))"}, {"measurement": "herbicidal effect on P: chickweed", "setting": "chickweed [13]", "value": "3 (Herbicidal rate of 40% or more and less than 70%)"}, {"measurement": "L: windgrass, herbicidal effect rating", "setting": "windgrass [14]", "value": "0 (Herbicidal rate of 5% or less (almost no effect))"}, {"measurement": "O: lambsquarters, herbicidal effect rating", "setting": "lambsquarters [15]", "value": "0 (Herbicidal rate of 5% or less (almost no effect))"}, {"measurement": "I: wild oat, herbicidal effect rating", "setting": "wild oat [16]", "value": "0 (Herbicidal rate of 5% or less (almost no effect))"}, {"measurement": "herbicidal effect on R: persian speedwell", "setting": "persian speedwell", "value": "0 (Herbicidal rate of 5% or less (almost no effect))"}, {"measurement": "G: green foxtail, herbicidal effect rating", "setting": "green foxtail [17]", "value": "0 (Herbicidal rate of 5% or less (almost no effect))"}, {"measurement": "herbicidal effect on H: barnyard grass", "setting": "barnyard grass [18]", "value": "0 (Herbicidal rate of 5% or less (almost no effect))"}, {"measurement": "Q: false cleavers, herbicidal effect rating", "setting": "false cleavers [19]", "value": "0 (Herbicidal rate of 5% or less (almost no effect))"}, {"measurement": "herbicidal effect on O: lambsquarters", "setting": "lambsquarters [20]", "value": "0 (Herbicidal rate of 5% or less (almost no effect))"}, {"measurement": "P: chickweed, herbicidal effect rating", "setting": "chickweed [21]", "value": "3 (Herbicidal rate of 40% or more and less than 70%)"}, {"measurement": "herbicidal effect on J: blackgrass", "setting": "blackgrass [22]", "value": "0 (Herbicidal rate of 5% or less (almost no effect))"}, {"measurement": "H: barnyard grass, herbicidal effect rating", "setting": "barnyard grass [23]", "value": "0 (Herbicidal rate of 5% or less (almost no effect))"}, {"measurement": "N: redroot pigweed, herbicidal effect rating", "setting": "redroot pigweed [24]", "value": "0 (Herbicidal rate of 5% or less (almost no effect))"}]}
